US20240418704A1, “EPIGENETIC TARGETS IN CLONAL HEMATOPOIESIS” (Memorial Sloan-Kettering Cancer Center, priority 2021, published 2024)

Tested on: HSPCs co-cultured with BMECs
Assay: BMEC co-culture system: cell-type specific differentiation readout in response to small molecules
Type: cell-based, murine
Details: Cd11b+Gr1+, Lin neg, GMP, MEP and LSK cells after contacting the cells with the agent, FIGS. 4A-4C
Text: FIGS. 4A-4C. BMEC co-culture system can be used to readout cell-type specific dependencies in response to small molecules and single guide RNAs (sgRNAs).
A platform was adopted whereby primary murine HSPCs are co-cultured with bone marrow endothelial cells that allow for maintenance and expansion of HSPCs (FIG. 1). […] Thus, the adopted HSPC-BMEC co-culture platform is a robust system to study genetically defined murine HSPCs with CH genomic modifications.

Cc1nc(Nc2ncc(C(=O)Nc3c(C)cccc3Cl)s2)cc(N2CCN(CCO)CC2)n1 [Dasatanib]
effect on differentiation (percentage of heme-expression and cell differentiation): inhibits differentiation
